Source: patent publication US10618918B2, “Substituted boronic acids as antimicrobials” (priority 2015, dated 2020)

Experiments:
KP1004 KPC-2 [1] = experiment: Biapenem potentiation (MPC@1), strain KP1004 KPC-2; format: cell-based; conditions: minimum BLI concentration inhibiting growth with biapenem 1 μg/mL; tested up to 40 μg/mL
Protocol: (§1) Biapenem was present in the test medium at 1 μg/mL. […] Table 3 summarizes the BLI potency of biapenem potentiation (MPC@1) for two strains overexpressing class A (KPC) and class D (OXA-48) carbapenemases. Biapenem MIC for each strain is also shown.

KP1086 OXA-48 = experiment: Biapenem potentiation (MPC@1), strain KP1086 OXA-48; format: cell-based; conditions: minimum BLI concentration inhibiting growth with biapenem 1 μg/mL; tested up to 40 μg/mL
Protocol: as §1

AB1053 OXA-72 = experiment: Meropenem potentiation (MPC@8), strain AB1053 OXA-72; format: cell-based, Acinetobacter baumannii; conditions: minimum BLI concentration inhibiting growth with meropenem 8 μg/mL; tested up to 20 μg/mL
AB1054 OXA-23 = experiment: Meropenem potentiation (MPC@8), strain AB1054 OXA-23; format: cell-based, Acinetobacter baumannii; conditions: minimum BLI concentration inhibiting growth with meropenem 8 μg/mL; tested up to 20 μg/mL
[2] = target: T1, purified class A, C and D enzymes (β-lactamases) (Acinetobacter baumannii, UniProt Q9L4P2); experiment: biochemical; format: biochemical; conditions: purified OXA-23; nitrocefin (NCF) as reporter substrate
T1 construct: rows headed: Ki (OXA-23, NCF), uM; other: purified OXA-23; nitrocefin (NCF) as reporter substrate
T1 sequence (Q9L4P2 whole entry): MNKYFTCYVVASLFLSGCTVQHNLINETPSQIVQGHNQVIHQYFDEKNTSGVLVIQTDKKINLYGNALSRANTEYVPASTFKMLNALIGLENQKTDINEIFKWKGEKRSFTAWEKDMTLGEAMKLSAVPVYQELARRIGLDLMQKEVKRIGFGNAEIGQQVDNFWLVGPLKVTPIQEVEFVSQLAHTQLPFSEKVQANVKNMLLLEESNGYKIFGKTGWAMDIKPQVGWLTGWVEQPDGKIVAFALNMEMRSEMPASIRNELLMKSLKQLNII

[3] = target: purified class A, C and D enzymes (β-lactamases) (Enterobacter cloacae, UniProt P05364); experiment: biochemical; format: biochemical
Chain of purified class A, C and D enzymes (β-lactamases) (Enterobacter cloacae, UniProt P05364) (P05364 21-381): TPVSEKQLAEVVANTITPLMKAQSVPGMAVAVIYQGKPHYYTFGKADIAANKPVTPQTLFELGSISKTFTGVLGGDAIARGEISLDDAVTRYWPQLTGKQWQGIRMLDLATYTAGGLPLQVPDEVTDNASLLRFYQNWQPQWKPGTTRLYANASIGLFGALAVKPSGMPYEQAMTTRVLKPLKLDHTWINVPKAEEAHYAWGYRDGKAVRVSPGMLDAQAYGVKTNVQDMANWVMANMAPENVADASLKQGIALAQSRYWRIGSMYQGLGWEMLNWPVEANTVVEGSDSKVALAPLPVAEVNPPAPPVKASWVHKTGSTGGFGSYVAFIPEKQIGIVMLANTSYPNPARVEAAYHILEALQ

[4] = target: purified class A, C and D enzymes (β-lactamases) (Klebsiella pneumoniae, UniProt Q6XEC0); experiment: biochemical; format: biochemical; conditions: purified OXA-48; nitrocefin (NCF) as reporter substrate
[5] = target: purified class A, C and D enzymes (β-lactamases) (Klebsiella pneumoniae, UniProt Q9F663); experiment: biochemical; format: biochemical; conditions: purified KPC-2; nitrocefin (NCF) as reporter substrate
[6] = target: T2, purified class A, C and D enzymes (β-lactamases) (Pseudomonas aeruginosa, UniProt P24735); experiment: biochemical; format: biochemical
T2 construct: rows headed: Ki (Pa-AmpC, NCF), uM; other: purified Pa-AmpC; nitrocefin (NCF) as reporter substrate
T2 sequence (P24735 whole entry): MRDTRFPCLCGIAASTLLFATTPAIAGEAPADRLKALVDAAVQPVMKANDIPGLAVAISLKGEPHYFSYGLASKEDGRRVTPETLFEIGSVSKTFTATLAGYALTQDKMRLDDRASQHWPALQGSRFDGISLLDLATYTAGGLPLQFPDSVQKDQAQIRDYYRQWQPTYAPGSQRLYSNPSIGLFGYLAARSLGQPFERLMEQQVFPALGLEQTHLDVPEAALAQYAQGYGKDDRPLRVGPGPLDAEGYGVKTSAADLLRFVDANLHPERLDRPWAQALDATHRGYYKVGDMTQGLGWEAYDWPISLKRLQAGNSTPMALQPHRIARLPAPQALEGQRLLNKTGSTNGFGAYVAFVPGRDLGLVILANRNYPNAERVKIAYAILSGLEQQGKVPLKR

ECL1002 = experiment: Aztreonam potentiation (MPC@4), strain ECL1002; conditions: minimum BLI concentration inhibiting growth with aztreonam 4 μg/mL; tested up to 40 μg/mL
ec308 SHV-5 = experiment: Aztreonam potentiation (MPC@4), strain ec308 SHV-5; conditions: minimum BLI concentration inhibiting growth with aztreonam 4 μg/mL; tested up to 40 μg/mL
ec302 TEM-10 = experiment: Aztreonam potentiation (MPC@4), strain ec302 TEM-10; conditions: minimum BLI concentration inhibiting growth with aztreonam 4 μg/mL; tested up to 40 μg/mL
KP1004 KPC-2 [7] = experiment: Aztreonam potentiation (MPC@4), strain KP1004 KPC-2; conditions: minimum BLI concentration inhibiting growth with aztreonam 4 μg/mL; tested up to 40 μg/mL
EC1010 CMY-6 = experiment: Aztreonam potentiation (MPC@4), strain EC1010 CMY-6; conditions: minimum BLI concentration inhibiting growth with aztreonam 4 μg/mL; tested up to 40 μg/mL
KP1010 SHV-12 = experiment: Aztreonam potentiation (MPC@4), strain KP1010 SHV-12; conditions: minimum BLI concentration inhibiting growth with aztreonam 4 μg/mL; tested up to 40 μg/mL
KP1009 CTX-M-15 = experiment: Aztreonam potentiation (MPC@4), strain KP1009 CTX-M-15; conditions: minimum BLI concentration inhibiting growth with aztreonam 4 μg/mL; tested up to 40 μg/mL
KP1005 CTX-M-14 = experiment: Tigemonam potentiation (MPC@4), strain KP1005 CTX-M-14; conditions: minimum BLI concentration inhibiting growth with tigemonam 4 μg/mL; tested up to 40 μg/mL

Compound | BPM MPC1 KP1004 KPC-2 (KP1004 KPC-2 [1]) | BPM MPC1 OXA-48 KP1086 (KP1086 OXA-48) | MPM MPC8 AB1053 OXA-72 (AB1053 OXA-72) | MPM MPC8 AB1054 OXA-23 (AB1054 OXA-23) | Ki [2] | Ki (P99, NCF), uM [3] | Ki (OXA-48, NCF), uM [4] | Ki (KPC-2, NCF), uM [5] | Ki [6] | AZT MPC4 ECL1002 (ECL1002) | AZT MPC4 SHV-5 ec308 (ec308 SHV-5) | AZT MPC4 TEM-10 ec302 (ec302 TEM-10) | AZT MPC4 KPC-2 KP1004 (KP1004 KPC-2 [7]) | AZT MPC4 CMY-6 EC1010 (EC1010 CMY-6) | AZT MPC4 SHV-12 KP1010 (KP1010 SHV-12) | AZT MPC4 CTX-M-15 KP1009 (KP1009 CTX-M-15) | TIG MPC4 CTX-M-14 KP1005 (KP1005 CTX-M-14)
NCC#CCOc1ccc2c(c1C(=O)[O-])O[B-](O)(O)CC2.[Na+].[Na+] [Compound 32, Disodium; 8-(4-aminobut-2-ynoxy)-4,4-dihydroxy-5-oxa-4-boranuidabicyclo[4.4.0]deca-1(6),7,9-triene-7-carboxylate] | X (X = MPC@1 ≤ 5 μg/mL) | X (X = MPC@1 ≤ 5 μg/mL) | X (X = MPC@1 ≤ 5 μg/mL) | X (X = MPC@1 ≤ 5 μg/mL) | < 100 nM | X (key: X = Ki ≤ 0.1 μM; Y = 0.1 μM < Ki ≤ 1 μM; Z = Ki > 1 μM) | X (X = Ki ≤ 0.1 μM) | X (X = Ki ≤ 0.1 μM) | < 100 nM | X (X = MPC@4 ≤ 5 μg/mL) | Y (Y = 5 μg/mL < MPC@4 ≤ 20 μg/mL) | X (X = MPC@4 ≤ 5 μg/mL) | X (X = MPC@4 ≤ 5 μg/mL) | X (X = MPC@4 ≤ 5 μg/mL) | X (X = MPC@4 ≤ 5 μg/mL) | X (X = MPC@4 ≤ 5 μg/mL) | Y (Y = 5 μg/mL < MPC@4 ≤ 20 μg/mL)
O=C([O-])c1ccnc2c1O[B-](O)(O)CC2.[Na+].[Na+] [Compound 38, Disodium; 8,8-dihydroxy-7-oxa-2-aza-8-boranuidabicyclo[4.4.0]deca-1,3,5-triene-5-carboxylate] | X (X = MPC@1 ≤ 5 μg/mL) | Y (Y = 5 μg/mL < MPC@1 ≤ 20 μg/mL) | Z (Z = MPC@1 > 20 μg/mL) | Z (Z = MPC@1 > 20 μg/mL) | > 1000 nM | Z (key: X = Ki ≤ 0.1 μM; Y = 0.1 μM < Ki ≤ 1 μM; Z = Ki > 1 μM) | X (X = Ki ≤ 0.1 μM) | Y (Y = 0.1 μM < Ki ≤ 1 μM) | > 1000 nM | Z (Z = MPC@4 > 20 μg/mL) | Z (Z = MPC@4 > 20 μg/mL) | Z (Z = MPC@4 > 20 μg/mL) | Y (Y = 5 μg/mL < MPC@4 ≤ 20 μg/mL) | Y (Y = 5 μg/mL < MPC@4 ≤ 20 μg/mL) | Z (Z = MPC@4 > 20 μg/mL) | Z (Z = MPC@4 > 20 μg/mL) | Z (Z = MPC@4 > 20 μg/mL)
O=C([O-])c1c(OCC#CCO)ccc2c1O[B-](O)(O)CC2.[Na+].[Na+] [Compound 30, Disodium; 4,4-dihydroxy-8-(4-hydroxybut-2-ynoxy)-5-oxa-4-boranuidabicyclo[4.4.0]deca-1(6),7,9-triene-7-carboxylate] | X (X = MPC@1 ≤ 5 μg/mL) | Y (Y = 5 μg/mL < MPC@1 ≤ 20 μg/mL) | X (X = MPC@1 ≤ 5 μg/mL) | X (X = MPC@1 ≤ 5 μg/mL) | < 100 nM | X (key: X = Ki ≤ 0.1 μM; Y = 0.1 μM < Ki ≤ 1 μM; Z = Ki > 1 μM) | X (X = Ki ≤ 0.1 μM) | X (X = Ki ≤ 0.1 μM) | < 100 nM | X (X = MPC@4 ≤ 5 μg/mL) | X (X = MPC@4 ≤ 5 μg/mL) | X (X = MPC@4 ≤ 5 μg/mL) | X (X = MPC@4 ≤ 5 μg/mL) | X (X = MPC@4 ≤ 5 μg/mL) | X (X = MPC@4 ≤ 5 μg/mL) | X (X = MPC@4 ≤ 5 μg/mL) | Y (Y = 5 μg/mL < MPC@4 ≤ 20 μg/mL)
COCC#CCOc1ccc2c(c1C(=O)[O-])O[B-](O)(O)CC2.[Na+].[Na+] [Compound 31, Disodium; 4,4-dihydroxy-8-(4-methoxybut-2-ynoxy)-5-oxa-4-boranuidabicyclo[4.4.0]deca-1(6),7,9-triene-7-carboxylate] | X (X = MPC@1 ≤ 5 μg/mL) | X (X = MPC@1 ≤ 5 μg/mL) | X (X = MPC@1 ≤ 5 μg/mL) | X (X = MPC@1 ≤ 5 μg/mL) | < 100 nM | X (key: X = Ki ≤ 0.1 μM; Y = 0.1 μM < Ki ≤ 1 μM; Z = Ki > 1 μM) | X (X = Ki ≤ 0.1 μM) | X (X = Ki ≤ 0.1 μM) | < 100 nM | X (X = MPC@4 ≤ 5 μg/mL) | X (X = MPC@4 ≤ 5 μg/mL) | Y (Y = 5 μg/mL < MPC@4 ≤ 20 μg/mL) | X (X = MPC@4 ≤ 5 μg/mL) | X (X = MPC@4 ≤ 5 μg/mL) | X (X = MPC@4 ≤ 5 μg/mL) | Y (Y = 5 μg/mL < MPC@4 ≤ 20 μg/mL) | Y (Y = 5 μg/mL < MPC@4 ≤ 20 μg/mL)
